Source: publication PMC6219506, “Onsite GTP fuelling via DYNAMO1 drives division of mitochondria and peroxisomes” (Nature Communications, 2018)
Each block holds one compound with its values, some of them ahead of it.

Key:
DYNAMO1 = molecular target: T1, DYNAMO1 (Cyanidioschyzon merolae, UniProt M1USP1); test: LC-ESI-MS/MS of nucleotides (nucleoside diphosphate kinase activity); format: biochemical; conditions: 100 nM enzyme, 37 °C, 3 min
T1 construct: gene CYME_CML110C; open reading frame in pGEX6p-1, GST tag cut off with PreScission protease, E. coli XL-1 Blue; 17 kDa; tetramer
T1 sequence (M1USP1 1-153): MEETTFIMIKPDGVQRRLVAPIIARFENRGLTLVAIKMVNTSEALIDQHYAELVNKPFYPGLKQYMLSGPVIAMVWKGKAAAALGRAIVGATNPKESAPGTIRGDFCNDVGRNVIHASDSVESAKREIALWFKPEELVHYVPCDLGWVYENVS

DYNAMO1-Dnm1 string [1] = molecular target: T2, DYNAMO1-Dnm1 string (Cyanidioschyzon merolae, UniProt A0A125YLX6); test: malachite green phosphate release (GTPase activity); format: biochemical; conditions: 20 mM HEPES, pH 7.5, 30 mM KCl, 1 mM MgCl2, 1 mM DTT; 37 °C; DYNAMO1 at half the amount of Dnm1
T2 construct: gene CYME_CME019C; with Nucleoside diphosphate kinase-like protein DYNAMO1
T2 sequence (A0A125YLX6 entry or part of it, one chain of several): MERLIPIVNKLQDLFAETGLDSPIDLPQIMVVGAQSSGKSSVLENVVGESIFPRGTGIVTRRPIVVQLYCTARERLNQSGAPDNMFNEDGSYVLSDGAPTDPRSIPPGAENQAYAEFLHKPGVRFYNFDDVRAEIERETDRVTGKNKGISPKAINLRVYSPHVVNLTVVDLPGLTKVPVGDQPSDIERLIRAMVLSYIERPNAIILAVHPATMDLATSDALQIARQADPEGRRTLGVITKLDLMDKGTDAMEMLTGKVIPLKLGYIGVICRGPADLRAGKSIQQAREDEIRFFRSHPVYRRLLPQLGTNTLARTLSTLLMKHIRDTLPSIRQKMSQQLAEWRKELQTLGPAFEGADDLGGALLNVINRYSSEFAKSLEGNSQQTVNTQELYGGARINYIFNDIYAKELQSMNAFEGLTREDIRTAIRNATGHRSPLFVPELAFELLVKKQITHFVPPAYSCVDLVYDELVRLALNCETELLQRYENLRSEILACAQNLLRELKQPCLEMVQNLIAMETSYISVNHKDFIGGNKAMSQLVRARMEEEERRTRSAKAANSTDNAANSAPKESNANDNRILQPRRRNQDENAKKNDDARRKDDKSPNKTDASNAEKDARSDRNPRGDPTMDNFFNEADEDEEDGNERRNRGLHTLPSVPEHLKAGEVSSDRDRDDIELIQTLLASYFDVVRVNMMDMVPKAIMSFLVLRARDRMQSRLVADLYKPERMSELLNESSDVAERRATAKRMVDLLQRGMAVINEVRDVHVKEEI

DYNAMO1-Dnm1 string [2] = molecular target: T2, DYNAMO1-Dnm1 string; test: as above; format: biochemical; conditions: 20 mM HEPES, pH 7.5, 30 mM KCl, 1 mM MgCl2, 1 mM DTT; 37 °C; DYNAMO1 at half the amount of Dnm1; remark: listed apart in the source
[3] = molecular target: recombinant DYNAMO1 (dynamin-based ring motive-force organizer 1), GST removed (Cyanidioschyzon merolae); test: SEC; 1 μg purified recombinant DYNAMO1 on a Sepharose 6 10/300 GL column, AKTA prime; standards thyroglobulin, γ-globulin, ovalbumin

Compound: Nc1ncnc2c1ncn2[C@@H]1O[C@H](COP(=O)(O)OP(=O)(O)OP(=O)(O)O)[C@@H](O)[C@H]1O [ATP]
LC-ESI-MS/MS of nucleotides (nucleoside diphosphate kinase activity) (DYNAMO1; co-substrate GDP): generated GTP upon addition of ATP plus GDP (Fig. 1e, f)

Compound: Nc1nc2c(ncn2[C@@H]2O[C@H](COP(=O)(O)OP(=O)(O)O)[C@@H](O)[C@H]2O)c(=O)[nH]1 [GDP]
LC-ESI-MS/MS of nucleotides (nucleoside diphosphate kinase activity) (DYNAMO1; co-substrate ATP): generated GTP upon addition of ATP plus GDP (Fig. 1e, f)

Compound: Nc1nc2c(ncn2[C@@H]2O[C@H](COP(=O)(O)OP(=O)(O)OP(=O)(O)O)[C@@H](O)[C@H]2O)c(=O)[nH]1 [GTP]
malachite green phosphate release (GTPase activity) (DYNAMO1-Dnm1 string [1]): the GTPase activity of Dnm1 was higher in DYNAMO1-Dnm1 and DYNAMO1 H116D-Dnm1 strings
malachite green phosphate release (GTPase activity) (DYNAMO1-Dnm1 string [2]): the GTPase activity of Dnm1 was higher in DYNAMO1-Dnm1 and DYNAMO1 H116D-Dnm1 strings

stoichiometry N [3]: 4
Compound: recombinant DYNAMO1 (dynamin-based ring motive-force organizer 1), GST removed (natural protein)
